Test results published in patent publication US12409179B2 (GENEROS BIOPHARMA LTD., priority 2019, dated 2025).

How the values were obtained:
[1] = rat, in vivo, po, 10 mg/kg
[2] = tested on: rat adjuvant-induced arthritis model; assay: Embodiment 2: oral Nib1 and medium-dose methotrexate in rat adjuvant-induced arthritis model (joint score, paw volume, AUC); type: in vivo, Lewis rat; details: MTX 0.5 mpk, Nib1 5 mpk, Nib1 5 mpk + MTX 0.5 mpk
[3] = rat, in vivo
[4] = tested on: Lewis rat adjuvant-induced arthritis model; assay: Embodiment 1: oral Nib1 and injected methotrexate in Lewis rat adjuvant-induced arthritis model (joint score, paw volume, AUC); type: in vivo
[5] = tested on: adjuvant-induced arthritis in rats; assay: Embodiment 3: oral Nib1 and methotrexate in adjuvant-induced arthritis in rats (joint score, paw volume, AUC); type: in vivo, Lewis rat
[6] = day 0, oral, Tofacitinib 5 mpk, MTX 0.05 mpk, Nib1 1 mpk, Nib1 1 mpk + MTX 0.05 mpk
[7] = day 8, oral, Tofacitinib 5 mpk, MTX 0.05 mpk, Nib1 1 mpk, Nib1 1 mpk + MTX 0.05 mpk
[8] = day 11, oral, Tofacitinib 5 mpk, MTX 0.05 mpk, Nib1 1 mpk, Nib1 1 mpk + MTX 0.05 mpk
[9] = day 15, oral, Tofacitinib 5 mpk, MTX 0.05 mpk, Nib1 1 mpk, Nib1 1 mpk + MTX 0.05 mpk
[10] = day 18, oral, Tofacitinib 5 mpk, MTX 0.05 mpk, Nib1 1 mpk, Nib1 1 mpk + MTX 0.05 mpk

In the case of O=c1[nH]c2ccccc2n1C1CCN(CCCC(c2ccc(F)cc2)c2ccc(F)cc2)CC1 [Nib1, Pimozide], the “changes in body weight over time (FIG. 1)” value [1] was “lower than other groups, but there was no significant difference”, the “Relative to G2 percentage (%) (AUC of changes in paw volume)” value ([2]; Embodiment 2, G2 = Vehicle, Tofacitinib 5 mpk) was 56.9% and the “Total area (AUC of changes in paw volume)” value ([2]; Embodiment 2, Tofacitinib 5 mpk, in mL·day) was 21.32. For the same molecule, the “Clinical scoring of arthritis (sum of the scores of the quadrupedal joints), Average value” (“Clinical scoring of arthritis” for short) ([2]; day 0, Tofacitinib 5 mpk) was 0, the “paw volume (right hind foot), Average value” (“paw volume (right hind foot)” below) ([2]; day 0, Tofacitinib 5 mpk) was 1.02 mL and the “Clinical scoring of arthritis” value ([2]; day 7, Tofacitinib 5 mpk) was 0.63. The “paw volume (right hind foot)” value ([2]; day 7, Tofacitinib 5 mpk) was 1.71 mL, the “Clinical scoring of arthritis” value ([2]; day 13, Tofacitinib 5 mpk) was 1.75 and the “paw volume (right hind foot)” value ([2]; day 13, Tofacitinib 5 mpk) was 1.88 mL. For the same molecule, the “Clinical scoring of arthritis” value ([2]; day 15, Tofacitinib 5 mpk) was 5.50, the “paw volume (right hind foot)” value ([2]; day 15, Tofacitinib 5 mpk) was 1.94 mL and the “Clinical scoring of arthritis” value ([2]; day 17, Tofacitinib 5 mpk) was 6.75. The “paw volume (right hind foot)” value ([2]; day 17, Tofacitinib 5 mpk) was 2.05 mL, the “Clinical scoring of arthritis” value ([2]; day 20, Tofacitinib 5 mpk) was 7.00 and the “paw volume (right hind foot)” value ([2]; day 20, Tofacitinib 5 mpk) was 2.05 mL. The “Clinical scoring of arthritis” value ([2]; day 22, Tofacitinib 5 mpk) was 7.25, the “paw volume (right hind foot)” value ([2]; day 22, Tofacitinib 5 mpk) was 2.00 mL and the “Clinical scoring of arthritis” value ([2]; day 24, Tofacitinib 5 mpk) was 7.25. The “paw volume (right hind foot)” value ([2]; day 24, Tofacitinib 5 mpk) was 2.06 mL, the “Clinical scoring of arthritis” value ([2]; day 27, Tofacitinib 5 mpk) was 7.00 and the “paw volume (right hind foot)” value ([2]; day 27, Tofacitinib 5 mpk) was 2.20 mL. For the same molecule, the “Clinical scoring of arthritis” value ([2]; day 29, Tofacitinib 5 mpk) was 6.88, the “paw volume (right hind foot)” value ([2]; day 29, Tofacitinib 5 mpk) was 2.16 mL and the “Clinical scoring of arthritis” value ([2]; day 31, Tofacitinib 5 mpk) was 7.13. The “paw volume (right hind foot)” value ([2]; day 31, Tofacitinib 5 mpk) was 2.16 mL, the “Clinical scoring of arthritis” value ([2]; day 34, Tofacitinib 5 mpk) was 6.88 and the “paw volume (right hind foot)” value ([2]; day 34, Tofacitinib 5 mpk) was 1.02 mL. The “changes in body weight over time (Table 5, FIG. 5)” value [3] was “decreased significantly in the initial stage, and gradually recovered in the later stage”, the “the therapeutic effects compared with vehicle group (paw volume x time AUC %)” value ([4]; methotrexate 0.5 mg/kg intraperitoneal once per week, Nib1 10 mg/kg oral once every two days) was 66.6% and the “paw volume AUC relative to vehicle group, as fraction” value ([4]; methotrexate 0.5 mg/kg intraperitoneal, Nib1 10 mg/kg oral) was 0.666. For the same molecule, the “Relative to G2 percentage (%) (AUC of changes in paw volume)” value ([5]; Embodiment 3, G2 = Vehicle, oral, Tofacitinib 5 mpk, MTX 0.05 mpk, Nib1 1 mpk, Nib1 1 mpk + MTX 0.05 mpk) was 74.9%, the “change ratio of ΔAUC relative to the vehicle group, as fraction” value ([5]; Embodiment 3, methotrexate 0.05 mg/kg, Nib1 1 mg/kg) was 0.749 and the “Area under the curve AUC (ml*day) of changes in paw volume” value ([5]; Embodiment 3, oral, Tofacitinib 5 mpk, MTX 0.05 mpk, Nib1 1 mpk, Nib1 1 mpk + MTX 0.05 mpk) was 14.26 mL·days. The “Clinical scoring of arthritis” value [5, 6] was 0.00, the “volume of the right hind foot, Average value” (“volume of the right hind foot” below) [5, 6] was 1.31 mL and the “Clinical scoring of arthritis” value [5, 7] was 0.78. The “volume of the right hind foot” value [5, 7] was 1.44 mL, the “Clinical scoring of arthritis” value [5, 8] was 3.33 and the “volume of the right hind foot” value [5, 8] was 1.79 mL. The “Clinical scoring of arthritis” value ([5]; day 13, oral, Tofacitinib 5 mpk, MTX 0.05 mpk, Nib1 1 mpk, Nib1 1 mpk + MTX 0.05 mpk) was 5.22, the “Clinical scoring of arthritis” value [5, 9] was 6.33 and the “volume of the right hind foot” value [5, 9] was 2.41 mL. For the same molecule, the “Clinical scoring of arthritis” value [5, 10] was 7.89, the “volume of the right hind foot” value [5, 10] was 2.73 mL and the “Clinical scoring of arthritis” value ([5]; day 21, oral, Tofacitinib 5 mpk, MTX 0.05 mpk, Nib1 1 mpk, Nib1 1 mpk + MTX 0.05 mpk) was 8.56. The “volume of the right hind foot” value ([5]; day 22, oral, Tofacitinib 5 mpk, MTX 0.05 mpk, Nib1 1 mpk, Nib1 1 mpk + MTX 0.05 mpk) was 3.10 mL and the “Clinical scoring of arthritis” value ([5]; day 24, oral, Tofacitinib 5 mpk, MTX 0.05 mpk, Nib1 1 mpk, Nib1 1 mpk + MTX 0.05 mpk) was 8.67.
